Results as given in paper PMC6274517, “Design, Synthesis and Structure-Activity Relationships of Novel Chalcone-1,2,3-triazole-azole Derivates as Antiproliferative Agents” (Molecules, 2016).
≈ marks a conversion by molar mass, not a printed value. Where two headings read alike, the source gives them in different places.

Legend:
MCF-7 = conditions: cited from earlier work
K562 cells = system: K562 cells; parameters: method as in PMID 19837593; conditions: cited from earlier work
SMMC-7721 = system: SMMC-7721; parameters: method as in PMID 21345546; conditions: cited from earlier work
EC-109 = test: MTT antiproliferative assay, EC-109; assay type: cell-based, human; conditions: mean ± SD of three experiments
Description: (§1) In totally, a series of novel chalcone-1,2,3-triazole-azole derivatives were successfully synthesized, and their structures characterized by ^1H-NMR, ^13C-NMR, HRMS. Their in vitro antiproliferative activities were then tested, using a MTT assay, against three selected cancer cell lines (SK-N-SH, EC-109 and MGC-803) and compared with the well-known anticancer drug 5-fluorouracil.
(§2) All synthesized compounds were evaluated for their anticancer activity against three cancer cell lines, MGC-803 (human gastric cancer cell line), SK-N-SH (human neuroendocrine cancer cell line), and […] (human esophageal cancer cell line) using MTT assay method and compared with the well-known anticancer drug 5-fluorouracil.

SK-N-SH = test: MTT antiproliferative assay, SK-N-SH; assay type: cell-based, human; conditions: 72 h exposure, mean ± SD of three experiments
Description: as §1, §2

MGC-803 = test: MTT antiproliferative assay, MGC-803; assay type: cell-based, human; conditions: mean ± SD of three experiments
Description: as §1, §2

GES-1 = test: Cytotoxicity against normal GES-1 cells; assay type: cell-based, human; conditions: for IC50: normal human gastric epithelial cell line, 72 h exposure, mean ± SD of three experiments; for selectivity between cancer and normal cells: MGC-803 versus GES-1
From the text: Compounds I-14 and I-21 were further examined for possible cytotoxicity against GES-1 (normal human gastric epithelial cell line).

[1] = system: SK-N-SH, EC-109 and MGC-803; test: MTT antiproliferative assay, three cancer cell lines together; assay type: cell-based, human; conditions: range across EC-109, SK-N-SH, read-out: IC50 values, range over the three cancer cell lines
Description: as §1, §2

SK-N-SH cells = test: Apoptosis analysis with Hoechst-33258 staining; assay type: cell-based, human; conditions: SK-N-SH cells, 5, 10 and 20 μM; 24 h / 48 h (legend of Figure 5)
Description: To explore cytotoxicity of I-21 in SK-N-SH cells, cell apoptosis was investigated with Hoechst 33258 staining.
Figure 5 Apoptosis analysis with Hoechst-33258 staining after a 48 h treatment of I-21 in SK-N-SH cell line at 5 μM, 10 μM and 20 μM.

[2] = system: Bcl-2 and Bax in SK-N-SH cells; test: Western blot of Bcl-2 and Bax; assay type: cell-based, human; conditions: 48 h treatment
Description: Antiproliferative agents that induce apoptosis in cancer cells are always preferred in antitumor drug discovery. Bcl-2 associated proteins have both anti-apoptotic and pro-apoptotic effects in vrious cancer cell lines. For the high potent cytotoxic activity against SK-N-SH cell line, compound I-21 was evaluated the level of Bcl-2 (apoptotic inhibitor) and Bax (apoptotic inducer). […] Further mechanism investigations are under way and will be reported in due course.
Figure 6 Expression of Bcl-2 and Bax in SK-N-SH cells after treatment by compound I-21 for 48 h.

[3] = Homo sapiens, ECa-109, 72 h exposure
[4] = Homo sapiens, MGC-803, 72 h exposure

Compound | IC50 (SK-N-SH; Homo sapiens, SK-N-SH) [µM] | IC50 (MGC-803; [4]) [µM] | melting point [°C] | IC50 (EC-109; [3]) [µM] | further results
O=C(/C=C/c1ccccc1)c1ccccc1 [Compound 1] |  |  |  |  | IC50 MCF-7 (MCF-7): 6.88 µg/mL (≈ 33 µM)
COc1ccc(C(=O)/C=C/c2cc(OC)c(OC)c(OC)c2)cc1OC [Compound 2] |  |  |  |  | IC50 (K562 cells): 1.1 µM
CN(C)CCN1C(=O)c2cccc3cc(-n4cc(-c5ccccc5)nn4)cc(c23)C1=O [Compound 3] |  |  |  |  | IC50 (MCF-7): 0.348 µM; IC50 (SMMC-7721): 0.258 µM
O=C(NCc1cn(Cc2cccc(Oc3ccccc3)c2)nn1)c1ccccn1 [Compound 4] |  |  |  |  | IC50 (MCF-7): 0.046 µM
O=C(/C=C/c1cccnc1)c1ccc(OCCCn2cc(CSC3=NCCS3)nn2)cc1 [Compound I-15, (E)-1-(4-(3-(4-(((4,5-Dihydrothiazol-2-yl)thio)methyl)-1H-1,2,3-triazol-1-yl)propoxy)phenyl)-3-(pyridin-3-yl)prop-2-en-1-one] | 47.3 ± 1.57 | 63.8 ± 1.17 | 149 to 151 | 42.36 ± 0.18 | 
O=C(/C=C/c1ccc(Cl)cc1)c1ccc(OCCCn2cc(CSc3nc4ccccc4s3)nn2)cc1 [Compound I-17] | > 100 | 38.2 ± 0.58 | 172 to 174 | 9.54 ± 0.05 | 
O=C(/C=C/c1cccs1)c1ccc(OCCCn2cc(CSc3nc4ccccc4s3)nn2)cc1 [Compound I-19, (E)-1-(4-(3-(4-((Benzo[d]thiazol-2-ylthio)methyl)-1H-1,2,3-triazol-1-yl)propoxy)phenyl)-3-(thiophen-2-yl)prop-2-en-1-one] | 37.8 ± 0.91 | 24.4 ± 0.71 |  | 38.8 ± 1.05 | 
Cn1nnnc1SCc1cn(CCCOc2ccc(C(=O)/C=C/c3cccs3)cc2)nn1 [Compound I-27, (E)-1-(4-(3-(4-(((1-Methyl-1H-tetrazol-5-yl)thio)methyl)-1H-1,2,3-triazol-1-yl)propoxy)phenyl)-3-(thiophen-2-yl)prop-2-en-1-one] | 29.3 ± 0.85 | 38.1 ± 0.91 | 129 to 130 | > 100 | 
(E)-1-(4-(3-(4-(((1,3,4-Thiadiazol-2-yl)thio)methyl)-1H-1,2,3-triazol-1-yl)propoxy)phenyl)-3-(3,4,5-trimethoxyphenyl)prop-2-en-1-one [Compound I-21] |  |  |  |  | IC50 (EC-109; 72 h exposure): 10.4 ± 0.24 µM; IC50 (SK-N-SH): 1.52 ± 0.3 µM; IC50 (MGC-803; 72 h exposure): 4.26 ± 0.32 µM; selectivity between cancer and normal cells (GES-1): good selectivity; IC50 (GES-1): 43.7 ± 1.35 µM; apoptotic morphological changes (Hoechst 33258 staining) (SK-N-SH cells): characteristic apoptotic morphological changes; level of Bax [2]: increased the level of Bax; level of Bcl-2 [2]: reduced the level of Bcl-2; IC50 [1]: 1.52 to 10.4 µM

Second part, led by results:

IC50 (SK-N-SH; Homo sapiens, SK-N-SH) [µM] | IC50 (MGC-803; [4]) [µM] | melting point [°C] | Compound | IC50 (EC-109; [3]) [µM] | further results
9.85 ± 0.76 | 7.14 ± 0.28 |  | O=c1[nH]cc(F)c(=O)[nH]1 [Compound 5-FU, 5-fluorouracil, reference compound] | 10.3 ± 0.32 | 
19.3 ± 0.47 | 37.2 ± 0.85 | 151 to 153 | O=C(/C=C/c1ccc(Cl)cc1)c1ccc(OCCCn2cc(CSC3=NCCS3)nn2)cc1 [Compound I-13, (E)-3-(4-Chlorophenyl)-1-(4-(3-(4-(((4,5-dihydrothiazol-2-yl)thio)methyl)-1H-1,2,3-triazol-1-yl)propoxy)phenyl)prop-2-en-1-one] | > 100 | 
5.87 ± 1.05 | 8.52 ± 0.56 | 169 to 171 | COc1cc(/C=C/C(=O)c2ccc(OCCCn3cc(CSC4=NCCS4)nn3)cc2)cc(OC)c1OC [Compound I-14, (E)-1-(4-(3-(4-(((4,5-Dihydrothiazol-2-yl)thio)methyl)-1H-1,2,3-triazol-1-yl)propoxy)phenyl)-3-(3,4,5-trimethoxyphenyl)prop-2-en-1-one] | 3.57 ± 0.22 | IC50 (GES-1; GES1): > 64 µM; selectivity between cancer and normal cells (GES-1): good selectivity; IC50 ([1]; Homo sapiens): 3.57 to 8.52 µM
11.2 ± 0.26 | 8.69 ± 0.42 | 104 to 106 | O=C(/C=C/c1cccs1)c1ccc(OCCCn2cc(CSC3=NCCS3)nn2)cc1 [Compound I-16, (E)-1-(4-(3-(4-(((4,5-Dihydrothiazol-2-yl)thio)methyl)-1H-1,2,3-triazol-1-yl)propoxy)phenyl)-3-(thiophen-2-yl)prop-2-en-1-one] | 19.3 ± 0.79 | 
14.8 ± 0.72 | 6.24 ± 0.05 | 144 to 146 | O=C(/C=C/c1cccnc1)c1ccc(OCCCn2cc(CSc3nc4ccccc4s3)nn2)cc1 [Compound I-18, (E)-1-(4-(3-(4-((Benzo[d]thiazol-2-ylthio)methyl)-1H-1,2,3-triazol-1-yl)propoxy)phenyl)-3-(pyridin-3-yl)prop-2-en-1-one] | 24.6 ± 3.8 | 
3.75 ± 1.21 | 46.3 ± 1.64 | 143 to 145 | O=C(/C=C/c1ccc(Cl)cc1)c1ccc(OCCCn2cc(CSc3nncs3)nn2)cc1 [Compound I-20, (E)-1-(4-(3-(4-(((1,3,4-Thiadiazol-2-yl)thio)methyl)-1H-1,2,3-triazol-1-yl)propoxy)phenyl)-3-(4-chlorophenyl)prop-2-en-1-one] | 5.81 ± 0.21 | 
12.4 ± 0.44 | 4.45 ± 0.82 | 146 to 149 | O=C(/C=C/c1cccnc1)c1ccc(OCCCn2cc(CSc3nncs3)nn2)cc1 [Compound I-22, (E)-1-(4-(3-(4-(((1,3,4-Thiadiazol-2-yl)thio)methyl)-1H-1,2,3-triazol-1-yl)propoxy)phenyl)-3-(pyridin-3-yl)prop-2-en-1-one] | 14.6 ± 1.21 | 
21 ± 1.81 | 15.1 ± 0.85 |  | O=C(/C=C/c1cccs1)c1ccc(OCCCn2cc(CSc3nncs3)nn2)cc1 [Compound I-23, (E)-1-(4-(3-(4-(((1,3,4-Thiadiazol-2-yl)thio)methyl)-1H-1,2,3-triazol-1-yl)propoxy)phenyl)-3-(thiophen-2-yl)prop-2-en-1-one] | 57.2 ± 1.63 | 
28.4 ± 1.59 | 50.1 ± 0.97 | 149 to 150 | Cn1nnnc1SCc1cn(CCCOc2ccc(C(=O)/C=C/c3ccc(Cl)cc3)cc2)nn1 [Compound I-24, (E)-3-(4-Chlorophenyl)-1-(4-(3-(4-(((1-methyl-1H-tetrazol-5-yl)thio)methyl)-1H-1,2,3-triazol-1-yl)propoxy)phenyl)prop-2-en-1-one] | 24.9 ± 1.09 | 
6.98 ± 0.4 | 5.66 ± 0.55 | 105 to 107 | COc1cc(/C=C/C(=O)c2ccc(OCCCn3cc(CSc4nnnn4C)nn3)cc2)cc(OC)c1OC [Compound I-25, (E)-1-(4-(3-(4-(((1-Methyl-1H-tetrazol-5-yl)thio)methyl)-1H-1,2,3-triazol-1-yl)propoxy)phenyl)-3-(3,4,5-trimethoxyphenyl)prop-2-en-1-one] | 5.28 ± 0.56 | 
4.49 ± 0.45 | 5.56 ± 0.45 | 151 to 153 | Cn1nnnc1SCc1cn(CCCOc2ccc(C(=O)/C=C/c3cccnc3)cc2)nn1 [Compound I-26, (E)-1-(4-(3-(4-(((1-Methyl-1H-tetrazol-5-yl)thio)methyl)-1H-1,2,3-triazol-1-yl)propoxy)phenyl)-3-(pyridin-3-yl)prop-2-en-1-one] | 11.8 ± 0.74 | 
